Here are results for one molecule from patent US20220040129A1, “TREATMENT OF HYPERAMMONEMIA IN PATIENTS WITH RENAL INSUFFICIENCY” (RECORDATI S.p.A., priority 2019, published 2022).

The target of one series is T1, human BCRP (Homo sapiens, UniProt Q9UNQ0).
T1 sequence (Q9UNQ0 1-655): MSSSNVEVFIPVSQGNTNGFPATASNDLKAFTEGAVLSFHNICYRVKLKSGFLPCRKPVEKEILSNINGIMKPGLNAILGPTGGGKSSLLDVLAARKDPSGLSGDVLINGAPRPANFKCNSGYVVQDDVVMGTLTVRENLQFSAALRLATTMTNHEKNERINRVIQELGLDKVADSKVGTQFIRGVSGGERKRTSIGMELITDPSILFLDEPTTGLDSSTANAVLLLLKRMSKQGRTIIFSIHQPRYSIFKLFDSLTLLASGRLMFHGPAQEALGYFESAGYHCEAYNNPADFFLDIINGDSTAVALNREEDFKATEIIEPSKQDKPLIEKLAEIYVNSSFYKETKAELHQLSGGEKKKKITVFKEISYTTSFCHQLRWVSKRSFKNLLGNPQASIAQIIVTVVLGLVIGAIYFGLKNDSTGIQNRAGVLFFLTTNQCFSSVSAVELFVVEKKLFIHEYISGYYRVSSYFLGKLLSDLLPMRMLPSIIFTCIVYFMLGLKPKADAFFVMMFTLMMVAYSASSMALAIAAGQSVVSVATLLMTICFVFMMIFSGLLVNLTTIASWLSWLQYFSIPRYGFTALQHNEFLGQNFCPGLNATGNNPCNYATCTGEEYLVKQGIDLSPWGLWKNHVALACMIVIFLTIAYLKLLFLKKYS
As to the kind of experiment: In vitro transporter inhibition. It counts as in vitro ADME. As for the experimental part:
(§1) In vitro drug interaction studies were performed with human transporters. […] Potential interactions with inhibitors of the OAT1 transporter were considered clinically irrelevant.

The next series has as its target T2, human MATE1 (Homo sapiens, UniProt Q96FL8).
T2 sequence (Q96FL8 1-570): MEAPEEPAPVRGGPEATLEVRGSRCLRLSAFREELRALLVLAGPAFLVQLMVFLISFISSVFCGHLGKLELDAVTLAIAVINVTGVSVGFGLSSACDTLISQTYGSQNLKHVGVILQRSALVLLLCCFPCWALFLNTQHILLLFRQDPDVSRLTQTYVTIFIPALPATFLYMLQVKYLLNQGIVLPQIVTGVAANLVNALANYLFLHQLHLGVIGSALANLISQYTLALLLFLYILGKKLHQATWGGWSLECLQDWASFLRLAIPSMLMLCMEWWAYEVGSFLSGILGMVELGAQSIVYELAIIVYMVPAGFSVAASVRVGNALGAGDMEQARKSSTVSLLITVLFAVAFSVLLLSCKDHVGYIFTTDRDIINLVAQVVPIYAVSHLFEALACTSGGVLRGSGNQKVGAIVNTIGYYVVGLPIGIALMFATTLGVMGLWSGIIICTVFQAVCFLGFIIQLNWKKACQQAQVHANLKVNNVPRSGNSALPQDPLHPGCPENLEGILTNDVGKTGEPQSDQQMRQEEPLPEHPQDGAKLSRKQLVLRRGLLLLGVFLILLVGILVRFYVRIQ
As to the kind of experiment: In vitro transporter inhibition. The class given is in vitro ADME. Here is the method: as §1

The target of a further series is T3, human OCT1 (Homo sapiens, UniProt O15245).
T3 sequence (O15245 1-554): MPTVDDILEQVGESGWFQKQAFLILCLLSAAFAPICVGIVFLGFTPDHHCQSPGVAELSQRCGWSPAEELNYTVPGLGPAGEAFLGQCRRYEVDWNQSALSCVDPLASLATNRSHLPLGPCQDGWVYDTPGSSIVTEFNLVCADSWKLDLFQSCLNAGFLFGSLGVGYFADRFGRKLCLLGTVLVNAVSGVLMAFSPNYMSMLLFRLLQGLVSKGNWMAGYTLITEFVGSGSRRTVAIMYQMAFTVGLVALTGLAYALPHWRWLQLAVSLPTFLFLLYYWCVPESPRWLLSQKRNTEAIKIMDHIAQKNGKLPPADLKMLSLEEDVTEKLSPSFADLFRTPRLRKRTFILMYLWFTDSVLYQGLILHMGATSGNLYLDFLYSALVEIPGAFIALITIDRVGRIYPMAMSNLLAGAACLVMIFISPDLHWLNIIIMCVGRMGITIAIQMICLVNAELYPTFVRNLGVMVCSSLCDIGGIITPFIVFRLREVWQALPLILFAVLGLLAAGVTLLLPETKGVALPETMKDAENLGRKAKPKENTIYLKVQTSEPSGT
As to the kind of experiment: In vitro transporter inhibition. The class given is in vitro ADME. Here is the method: as §1

The target of the next series is T4, human OATP1B3 (Homo sapiens, UniProt Q9NPD5).
T4 sequence (Q9NPD5 1-702): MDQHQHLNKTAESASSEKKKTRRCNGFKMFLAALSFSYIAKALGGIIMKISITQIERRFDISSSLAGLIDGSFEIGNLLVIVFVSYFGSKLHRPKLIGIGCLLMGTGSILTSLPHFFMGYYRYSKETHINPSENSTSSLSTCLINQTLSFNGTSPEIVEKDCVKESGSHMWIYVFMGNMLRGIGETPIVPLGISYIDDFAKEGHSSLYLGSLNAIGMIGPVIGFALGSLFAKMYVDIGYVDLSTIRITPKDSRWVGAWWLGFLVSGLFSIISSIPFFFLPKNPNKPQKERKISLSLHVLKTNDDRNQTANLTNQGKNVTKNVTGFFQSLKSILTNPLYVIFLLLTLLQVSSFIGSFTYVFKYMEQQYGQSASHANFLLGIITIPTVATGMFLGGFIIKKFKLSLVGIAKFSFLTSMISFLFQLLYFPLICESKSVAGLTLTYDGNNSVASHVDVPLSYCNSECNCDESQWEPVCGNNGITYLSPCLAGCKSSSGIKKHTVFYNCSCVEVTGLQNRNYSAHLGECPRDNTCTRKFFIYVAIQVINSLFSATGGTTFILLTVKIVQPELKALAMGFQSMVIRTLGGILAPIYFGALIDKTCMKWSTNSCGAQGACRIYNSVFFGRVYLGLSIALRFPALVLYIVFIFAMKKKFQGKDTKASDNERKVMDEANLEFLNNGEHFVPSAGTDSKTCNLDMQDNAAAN
As to the kind of experiment: In vitro transporter inhibition. The class given is in vitro ADME. Here is the method:
as §1

Series [1] is described as follows: Pharmacokinetics in healthy subjects after oral administration (radiolabeled and non-radiolabeled). It counts as in vivo, human. The settings on record: for half-life / CL renal: in vivo; for half-life / CL renal / Tmax: po.
The mark [2] stands for this setting: single radiolabeled oral dose of 100 mg/kg.

Read-outs that look alike come from different tables or passages of the source.

`NC(=O)N[C@@H](CCC(=O)O)C(=O)O` [carglumic acid, N-carbamoyl-L-glutamic acid]: the “Inhibition of human BCRP efflux transporter” value on human BCRP is given as “not an inhibitor”. In addition, the “Inhibition of human MATE1 uptake transporter” value at human MATE1 is listed as “not an inhibitor”. Further, the “Inhibition of human OCT1 uptake transporter” value at human OCT1 was “not an inhibitor”. The “Inhibition of human OATP1B3 uptake transporter” value at human OATP1B3 is “not an inhibitor”. Moreover, in series [1] (after oral administration), the 24-hour urinary excretion is listed as 4.5 % of the dose; the “Apparent total clearance, median” value stood at 5.7 L/min; the “Apparent volume of distribution, median” value was 2657 L; the “Apparent volume of distribution, median per kg” value is recorded as 35.9 L/kg. Also, the “Apparent volume of distribution, range” value in series [1] (after oral administration) fell in the range of 1616 to 5797 L. The half-life in series [1] (human, after oral administration, read-out: Initial half-life (converted)) was approximately 5.6 h. In series [1] (human, after oral administration, read-out: Renal clearance, median), the CL renal was determined as 290 mL/min. Further, the CL renal in series [1] (human, after oral administration, read-out: Renal clearance, range) is 204 to 445 mL/min. In addition, the half-life in series [1] (human, after oral administration, read-out: Terminal half-life (converted)) was approximately 22 h. Moreover, in series [1] (human, plasma, 100 mg/kg, oral, read-out: Absolute bioavailability), the bioavailability is 9.9%. For the same molecule, in series [1] (human, plasma, read-out: Tmax, median), the Tmax was found to be 3 h. Also, in series [1] (human, plasma, read-out: Tmax, range), the time to peak (Tmax) lay in the range of 2 to 4 h. Besides, in series [1] (setting [2]), the “Dose excreted unchanged in the urine” value is 9 % of the dose and the “Dose recovered unchanged in the feces” value is listed as “up to 60 % of the dose”.

Usually half-life stands for how long it takes for the measured level to halve. What is called bioavailability is the share of a dose that reaches the circulation, judged against a reference dose that is usually intravenous. In general, Tmax refers to the time from dosing to the highest level.
